Data from the supplement of paper PMC10307832.

Columns and labels:
Assay in all cases: relative viability (nuclei count vs DMSO), 5 days (fraction); higher = more cells survive
IU1-47 + Linsitinib = compound: CC1=CC(=C(N1C2=CC=C(C=C2)Cl)C)C(=O)CN3CCCCC3 [IU1-47] + C[C@]1(O)C[C@@H](c2nc(-c3ccc4ccc(-c5ccccc5)nc4c3)c3c(N)nccn32)C1 [Linsitinib] (partner 1 µM)
In short: (§1)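 Dosing by pin tool came one day after lung cancer cell lines were seeded in 1536-well plates, using either one drug or a fixed anchor-drug dose plus five library-drug doses (not always all listed) in √10 steps. After 5 days, nuclei were counted on 4× images. Relative viability is treated-well nuclei count divided by vehicle-well nuclei count, and values are medians of duplicate plates.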

IU1-47 + Bortezomib = compound: CC1=CC(=C(N1C2=CC=C(C=C2)Cl)C)C(=O)CN3CCCCC3 [IU1-47] + CC(C)C[C@H](NC(=O)[C@H](Cc1ccccc1)NC(=O)c1cnccn1)B(O)O [Bortezomib] (partner 0.002 µM)
In short: as §1

FG-4592 + Palbociclib = compound: Cc1nc(C(=O)NCC(=O)O)c(O)c2ccc(Oc3ccccc3)cc12 [FG-4592] + CC(=O)c1c(C)c2cnc(Nc3ccc(N4CCNCC4)cn3)nc2n(C2CCCC2)c1=O [Palbociclib] (partner 0.5 µM)
In short: as §1

FG-4592 + Dasatinib = compound: Cc1nc(C(=O)NCC(=O)O)c(O)c2ccc(Oc3ccccc3)cc12 [FG-4592] + Cc1nc(Nc2ncc(C(=O)Nc3c(C)cccc3Cl)s2)cc(N2CCN(CCO)CC2)n1 [Dasatinib] (partner 0.075 µM)
In short: as §1

Cell Line	relative viability (IU1-47 + Linsitinib; first compound 0.08 µM)	relative viability (IU1-47 + Linsitinib; first compound 0.253 µM)	relative viability (IU1-47 + Linsitinib; first compound 0.8 µM)	relative viability (IU1-47 + Linsitinib; first compound 2.53 µM)	relative viability (IU1-47 + Linsitinib; first compound 8 µM)	relative viability (IU1-47 + Bortezomib; first compound 0.08 µM)	relative viability (IU1-47 + Bortezomib; first compound 0.253 µM)	relative viability (IU1-47 + Bortezomib; first compound 0.8 µM)	relative viability (IU1-47 + Bortezomib; first compound 2.53 µM)	relative viability (IU1-47 + Bortezomib; first compound 8 µM)	relative viability (FG-4592 + Palbociclib; first compound 0.08 µM)	relative viability (FG-4592 + Palbociclib; first compound 0.253 µM)	relative viability (FG-4592 + Palbociclib; first compound 0.8 µM)	relative viability (FG-4592 + Palbociclib; first compound 2.53 µM)	relative viability (FG-4592 + Palbociclib; first compound 8 µM)	relative viability (FG-4592 + Dasatinib; first compound 0.08 µM)	relative viability (FG-4592 + Dasatinib; first compound 0.253 µM)	relative viability (FG-4592 + Dasatinib; first compound 0.8 µM)	relative viability (FG-4592 + Dasatinib; first compound 2.53 µM)	relative viability (FG-4592 + Dasatinib; first compound 8 µM)
HCC-15	0.931	0.967	0.9	0.917	0.801	1.11	1.05	1.05	0.928	0.856	0.73	0.767	0.684	0.733	0.755	0.65	0.601	0.536	0.554	0.681
HCC-44	0.668	0.662	0.649	0.664	0.572	0.891	0.851	0.89	0.873	0.898	0.923	0.954	0.91	0.943	0.97	–	–	–	–	–
HCC-78	0.555	0.506	0.521	0.474	0.417	0.712	0.562	0.49	0.381	0.596	0.468	0.486	0.465	0.453	0.438	0.472	0.333	0.379	0.386	0.32
IA-LM	0.526	0.407	0.655	0.741	0.604	0.917	0.899	0.904	0.782	0.824	–	–	–	–	–	–	–	–	–	–
LK-2	0.742	0.697	0.592	0.335	0.416	–	–	–	–	–	0.521	0.656	–	0.679	0.599	0.281	0.304	–	0.262	0.277
NCI-H358	0.737	0.791	0.75	–	0.703	–	–	–	–	–	0.114	0.141	0.128	0.128	0.136	0.16	0.19	0.162	0.145	0.156
NCI-H522	–	–	–	–	–	–	–	–	–	–	0.97	0.884	–	1.1	0.811	0.887	0.892	0.801	0.843	0.829
NCI-H596	1.17	1.11	1.02	0.984	0.934	1.03	0.929	1.11	1.07	0.995	–	–	–	–	–	0.573	0.736	0.418	0.537	0.562
NCI-H1299	0.943	0.951	1.05	1.01	0.975	1.08	1.06	1.09	0.989	0.945	–	–	–	–	–	–	–	–	–	–
NCI-H1395	1.04	1.07	0.978	–	0.987	–	–	–	–	–	0.585	0.615	0.597	0.688	0.485	0.446	0.416	0.373	0.364	0.365
NCI-H1563	1.22	1.05	1.19	1.07	1.14	0.822	0.831	0.885	0.775	0.552	–	–	–	–	–	0.465	0.465	0.397	0.466	0.44
NCI-H1623	–	–	–	–	–	–	–	–	–	–	–	–	–	–	–	0.505	0.555	0.446	0.486	0.468
NCI-H1648	–	–	–	–	–	–	–	–	–	–	0.248	0.29	–	0.282	0.262	–	–	–	–	–
NCI-H1650	–	–	–	–	–	0.194	0.171	0.22	0.203	0.195	0.259	0.292	0.304	0.346	0.332	0.304	0.361	0.281	0.295	0.342
NCI-H1703	0.516	0.707	0.416	0.671	0.886	0.278	0.354	0.273	0.403	0.504	–	–	–	–	–	–	–	–	–	–
NCI-H1793	0.822	0.868	0.976	–	0.689	–	–	–	–	–	–	0.256	–	0.39	0.293	0.37	0.311	–	0.354	0.328
NCI-H1944	1.23	1.2	1.13	–	1.1	–	–	–	–	–	0.329	0.329	0.282	0.363	0.29	0.251	0.207	0.177	0.199	0.202
NCI-H2170	–	–	–	–	–	–	–	–	–	–	0.423	0.351	0.345	0.381	0.282	0.592	0.478	0.412	0.59	0.497
NCI-H2342	–	–	–	–	–	–	–	–	–	–	0.519	0.503	0.47	0.538	0.489	0.312	0.281	0.316	0.341	0.311
SK-MES-1	1.13	1.31	1.12	1.01	1.11	–	–	–	–	–	0.331	0.287	0.284	0.32	0.327	0.534	0.434	0.351	0.365	0.34
SW 900	–	–	–	–	–	–	–	–	–	–	–	0.525	–	0.568	0.5	0.889	0.57	0.444	0.55	0.461
